Laboratory results reported in ChEMBL document CHEMBL1201862, “PubChem BioAssay data set” (2004).
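Assay format: 96-well plates, 48-hour exposure. At the GI50, growth is halved.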 Calls of active or inactive are those of the source. Cut-off read from the data, not from the text of the source: active = GI50 up to about 1.1 µM and inactive = higher.

Key:
Experiment in all cases: DTP human tumour cell line panel, 48 h
IGROV-1 = test system: IGROV-1
RXF 393 = test system: RXF 393
A549 = test system: A549
OVCAR-4 = test system: OVCAR-4
HL-60 = test system: HL-60
SK-MEL-28 = test system: SK-MEL-28
M14 = test system: M14
RPMI-8226 = test system: RPMI-8226
NCI-H460 = test system: NCI-H460
SK-OV-3 = test system: SK-OV-3
OVCAR-3 = test system: OVCAR-3
SK-MEL-2 = test system: SK-MEL-2
OVCAR-5 = test system: OVCAR-5
KM12 = test system: KM12
EKVX = test system: EKVX
A498 = test system: A498

Measured: GI50

O=C(c1cccs1)N(C(=S)N1CCN(c2ccccc2)CC1)C1CCCCC1
inactive: IGROV-1 > 100 µM | RXF 393 > 100 µM | A549 > 100 µM | OVCAR-4 > 100 µM | HL-60 22.1 µM | SK-MEL-28 > 100 µM | M14 > 100 µM | RPMI-8226 > 100 µM | NCI-H460 > 100 µM | SK-OV-3 > 100 µM | OVCAR-3 > 100 µM | SK-MEL-2 > 100 µM | OVCAR-5 > 100 µM | KM12 > 100 µM

COC1(OC)C2(Cl)C(Cl)=C(Cl)C1(Cl)C1C=CC=CC12 (stereo not given)
inactive: IGROV-1 > 100 µM | RXF 393 82.4 µM | A549 69 µM | OVCAR-4 > 100 µM | HL-60 55.8 µM | SK-MEL-28 > 100 µM | M14 57.5 µM | RPMI-8226 39.7 µM | NCI-H460 > 100 µM | EKVX > 100 µM | SK-OV-3 > 100 µM | OVCAR-3 > 100 µM | SK-MEL-2 24.1 µM | OVCAR-5 > 100 µM | KM12 > 100 µM

O=C(O)CN1CCSc2ccccc2CN(CC(=O)O)CCSc2ccccc2C1
inactive: IGROV-1 > 100 µM | A549 > 100 µM | HL-60 > 100 µM | A498 > 100 µM | SK-MEL-28 > 100 µM | M14 > 100 µM | RPMI-8226 > 100 µM | NCI-H460 > 100 µM | EKVX > 100 µM | SK-OV-3 > 100 µM | OVCAR-3 > 100 µM | SK-MEL-2 > 100 µM | OVCAR-5 > 100 µM | KM12 > 100 µM

NNC(=S)N/N=C(\CCCC(=O)NCCc1ccccc1)CC(=O)c1ccccc1
inactive: IGROV-1 > 100 µM | RXF 393 > 100 µM | A549 > 100 µM | OVCAR-4 > 100 µM | HL-60 > 100 µM | A498 > 100 µM | SK-MEL-28 > 100 µM | M14 > 100 µM | NCI-H460 > 100 µM | EKVX > 100 µM | OVCAR-3 > 100 µM | SK-MEL-2 > 100 µM | OVCAR-5 > 100 µM | KM12 > 100 µM

O=P(Nc1ccccc1)(Oc1ccccc1)N(CCCl)CCCl (stereo not given)
inactive: IGROV-1 > 100 µM | A549 94 µM | OVCAR-4 > 100 µM | HL-60 14.8 µM | A498 > 100 µM | SK-MEL-28 > 100 µM | M14 91.8 µM | EKVX > 100 µM | SK-OV-3 23.1 µM | OVCAR-3 > 100 µM | SK-MEL-2 36.5 µM | OVCAR-5 > 100 µM | KM12 65.8 µM

COc1cccc(NC(=O)CC(=O)N2N=C(N(CCC#N)c3ccccc3C)CC2c2ccccc2)c1 (stereo not given)
inactive: IGROV-1 > 100 µM | RXF 393 > 100 µM | A549 > 100 µM | OVCAR-4 > 100 µM | HL-60 > 100 µM | SK-MEL-28 > 100 µM | M14 > 100 µM | RPMI-8226 > 100 µM | NCI-H460 > 100 µM | EKVX > 100 µM | SK-OV-3 > 100 µM | OVCAR-3 > 100 µM | SK-MEL-2 > 100 µM | OVCAR-5 > 100 µM | KM12 > 100 µM

C/C=C/C(=O)Oc1cccc2cccnc12
inactive: IGROV-1 24.6 µM | RXF 393 12.4 µM | A549 18.8 µM | OVCAR-4 4.39 µM | HL-60 4.32 µM | SK-MEL-28 14.5 µM | M14 3.79 µM | RPMI-8226 9.73 µM | NCI-H460 3.32 µM | EKVX 6.85 µM | SK-OV-3 32.9 µM | OVCAR-3 3.24 µM | OVCAR-5 16.5 µM | KM12 16 µM

CCCc1ccc(NCc2cc(OC)c(OC)c(OC)c2)cc1
inactive: IGROV-1 24.4 µM | RXF 393 32.3 µM | A549 41.8 µM | OVCAR-4 32.4 µM | A498 28.3 µM | SK-MEL-28 25.1 µM | RPMI-8226 12.7 µM | NCI-H460 55 µM | EKVX 61 µM | SK-OV-3 22.3 µM | SK-MEL-2 18.6 µM | OVCAR-5 26.6 µM | KM12 23.1 µM

O=C1c2ccccc2C(=O)c2c1ccc1c2N=C(c2ccc(Br)cc2)CC(c2cccc3ccccc23)N1 (stereo not given)
inactive: IGROV-1 > 100 µM | RXF 393 > 100 µM | A549 > 100 µM | OVCAR-4 > 100 µM | HL-60 > 100 µM | SK-MEL-28 > 100 µM | M14 > 100 µM | RPMI-8226 83.6 µM | NCI-H460 > 100 µM | EKVX > 100 µM | SK-OV-3 > 100 µM | OVCAR-3 > 100 µM | SK-MEL-2 > 100 µM | OVCAR-5 > 100 µM | KM12 > 100 µM

O=C1CC2(CCC3=C(O2)c2ccccc2NC(=O)C3)C(=O)c2ccccc2N1 (stereo not given)
inactive: IGROV-1 > 100 µM | RXF 393 > 100 µM | A549 > 100 µM | OVCAR-4 > 100 µM | HL-60 > 100 µM | SK-MEL-28 > 100 µM | M14 > 100 µM | RPMI-8226 87.1 µM | NCI-H460 > 100 µM | EKVX > 100 µM | OVCAR-3 > 100 µM | SK-MEL-2 > 100 µM | OVCAR-5 > 100 µM | KM12 > 100 µM

CCNC(=O)CCN(C(=O)O)S(=O)(=O)c1ccc(NC(=O)c2ccccc2)cc1
inactive: IGROV-1 > 100 µM | A549 > 100 µM | OVCAR-4 > 100 µM | HL-60 > 100 µM | A498 > 100 µM | SK-MEL-28 > 100 µM | M14 > 100 µM | RPMI-8226 > 100 µM | NCI-H460 > 100 µM | EKVX > 100 µM | SK-OV-3 > 100 µM | OVCAR-3 > 100 µM | SK-MEL-2 > 100 µM | OVCAR-5 > 100 µM | KM12 > 100 µM

NC(=O)CCCC(NCc1c2ccccc2nc2ccccc12)C(=O)O (stereo not given)
inactive: IGROV-1 48.5 µM | RXF 393 51.8 µM | A549 56.1 µM | OVCAR-4 11.1 µM | HL-60 20.5 µM | SK-MEL-28 > 100 µM | M14 42.4 µM | RPMI-8226 22.8 µM | NCI-H460 39.5 µM | EKVX 56.6 µM | SK-OV-3 > 100 µM | OVCAR-3 37.9 µM | SK-MEL-2 90.6 µM | OVCAR-5 > 100 µM | KM12 29.2 µM

COc1ccc(-c2cc(O)c3cc4c(cc3n2)OCO4)c(OC)c1OC
inactive: IGROV-1 > 100 µM | RXF 393 > 100 µM | A549 > 100 µM | OVCAR-4 > 100 µM | HL-60 37.3 µM | SK-MEL-28 96.6 µM | M14 68.1 µM | RPMI-8226 82.8 µM | NCI-H460 33.6 µM | EKVX > 100 µM | SK-OV-3 50.8 µM | OVCAR-3 > 100 µM | SK-MEL-2 > 100 µM | KM12 68.9 µM

Cc1cc(N(CCC#N)CCC#N)ccc1/C=C/C(=O)Nc1ccccc1Cl
inactive: IGROV-1 > 100 µM | A549 > 100 µM | OVCAR-4 > 100 µM | HL-60 31.4 µM | A498 > 100 µM | SK-MEL-28 > 100 µM | M14 > 100 µM | RPMI-8226 > 100 µM | NCI-H460 > 100 µM | EKVX > 100 µM | SK-OV-3 > 100 µM | OVCAR-3 > 100 µM | SK-MEL-2 > 100 µM | OVCAR-5 > 100 µM | KM12 > 100 µM
